From patent US11064701B2, “Benzoxaborole compounds” (BASF SE, priority 2016, dated 2021) come the findings set out here.

Common to all, as to assay: greenhouse post-emergence herbicidal test
Common to all, as to assay type: in vivo
Details in all cases: application rate 2 kg/ha, post-emergence method; scale 0 to 100 (100 = complete destruction)

One experiment concerns Setaria viridis. An excerpt: (§1) The seeds of the test plants were sown separately for each species. For the post-emergence treatment, the test plants were first grown to a height of 3 to 8 cm, depending on the plant habit, and only then treated with the active ingredients which had been suspended or emulsified in water. For this purpose, the test plants were either sown directly and grown in the same containers, or they were first grown separately as seedlings and transplanted into the test containers a few days prior to treatment. Depending on the species, the plants were kept at 10-25° C. or 20-35° C., respectively. The test period extended over 2 to 4 weeks. During this time, the plants were tended, and their response to the individual treatments was evaluated. Evaluation was carried out using a scale from 0 to 100. 100 means no emergence of the plants, or complete destruction of at least the aerial moieties, and 0 means no damage, or normal course of growth. A moderate herbicidal activity is given at values of at least 60, a good herbicidal activity is given at values of at least 70, and a very good herbicidal activity is given at values of at least 85. The plants used in the greenhouse experiments were of the following species: [table]

A further experiment concerns Amaranthus retroflexus.
Source text: as §1

The next experiment has as its system Alopecurus myosuroides.
Source text: as §1

The next experiment relates to Echinocloa crus-galli.
Source text: as §1

Another experiment relates to Abutilon theophrasti.
Source text: as §1

The next experiment deals with Avena fatua.
Source text: as §1

SMILES strings stand for the structures.

Consider `COC(=O)COc1c(F)c(F)c2c(c1F)B(O)OC2` [I-39], for which the “herbicidal activity against Setaria viridis” value in the experiment on Setaria viridis stood at 100%. The “herbicidal activity against Amaranthus retroflexus” value in the experiment on Amaranthus retroflexus is on record as 100%.
Regarding `COC(=O)COc1cc2c(cc1Cl)COB2O` [I-7], the “herbicidal activity against Setaria viridis” value in the experiment with Setaria viridis worked out at 100%. Also, the “herbicidal activity against Alopecurus myosuroides” value with Alopecurus myosuroides was found to be 95%. Also, the “herbicidal activity against Echinocloa crus-galli” value in the experiment with Echinocloa crus-galli is 100%. Moreover, the “herbicidal activity against Amaranthus retroflexus” value in the experiment on Amaranthus retroflexus is 100%. In the experiment on Abutilon theophrasti, the “herbicidal activity against Abutilon theophrasti” value was 100%. In addition, the “herbicidal activity against Avena fatua” value in the experiment with Avena fatua amounted to 98%.
On to `CCOC(=O)C(C)(C)Oc1ccc2c(c1)B(O)OC2` [I-2], for which the “herbicidal activity against Amaranthus retroflexus” value in the experiment on Amaranthus retroflexus is given as 100%.
Still for that read-out and setting: the same measure for `O=C(O)CS(=O)(=O)c1cc2c(cc1F)COB2O` [I-37]: 100%.
Take `O=C(O)CSc1cc2c(cc1F)COB2O` [I-22]: in the experiment on Setaria viridis, the “herbicidal activity against Setaria viridis” value came to 100%. For the same compound, the “herbicidal activity against Amaranthus retroflexus” value in the experiment with Amaranthus retroflexus was found to be 100%. Further, in the experiment on Abutilon theophrasti, the “herbicidal activity against Abutilon theophrasti” value is given as 100%.
With `CC(C)(Oc1ccc2c(c1)B(O)OC2)C(=O)O` [I-4], in the experiment on Echinocloa crus-galli, the “herbicidal activity against Echinocloa crus-galli” value is given as 85%. Besides, the “herbicidal activity against Abutilon theophrasti” value with Abutilon theophrasti is 85%.
Consider `O=C(O)COc1cc2c(cc1Cl)COB2O` [I-8], for which the “herbicidal activity against Setaria viridis” value in the experiment with Setaria viridis was 95%. Moreover, in the experiment with Alopecurus myosuroides, the “herbicidal activity against Alopecurus myosuroides” value was found to be 98%. For the same compound, the “herbicidal activity against Echinocloa crus-galli” value with Echinocloa crus-galli was 100%. The “herbicidal activity against Amaranthus retroflexus” value in the experiment on Amaranthus retroflexus is listed as 100%. Further, the “herbicidal activity against Abutilon theophrasti” value with Abutilon theophrasti is listed as 100%. The “herbicidal activity against Avena fatua” value in the experiment on Avena fatua amounted to 98%.
Regarding `COC(=O)CS(=O)(=O)c1cc2c(cc1F)COB2O` [I-42], the “herbicidal activity against Amaranthus retroflexus” value with Amaranthus retroflexus was determined as 100%. For the same compound, in the experiment with Abutilon theophrasti, the “herbicidal activity against Abutilon theophrasti” value was 100%.
As for `COC(=O)C(C)Oc1c(F)cc2c(c1F)B(O)OC2` (stereo not shown) [I-35], the “herbicidal activity against Setaria viridis” value in the experiment on Setaria viridis turned out to be 98%. The “herbicidal activity against Amaranthus retroflexus” value in the experiment with Amaranthus retroflexus was 100%. The “herbicidal activity against Abutilon theophrasti” value in the experiment with Abutilon theophrasti was 100%.
In the case of `COC(=O)CSc1cc2c(cc1F)COB2O` [I-28], in the experiment with Setaria viridis, the “herbicidal activity against Setaria viridis” value is recorded as 100%. Moreover, the “herbicidal activity against Amaranthus retroflexus” value in the experiment with Amaranthus retroflexus came out at 100%. Also, the “herbicidal activity against Abutilon theophrasti” value in the experiment with Abutilon theophrasti is listed as 100%.
On to `COC(=O)COc1ccc2c(c1)B(O)OC2` [I-3], for which the “herbicidal activity against Setaria viridis” value in the experiment on Setaria viridis worked out at 100%. Moreover, the “herbicidal activity against Echinocloa crus-galli” value in the experiment on Echinocloa crus-galli amounted to 98%. Moreover, in the experiment on Amaranthus retroflexus, the “herbicidal activity against Amaranthus retroflexus” value is 100%. For the same compound, the “herbicidal activity against Abutilon theophrasti” value in the experiment with Abutilon theophrasti is reported as 100%. In addition, in the experiment with Avena fatua, the “herbicidal activity against Avena fatua” value came to 90%.
As to `O=C(O)COc1c(F)c(F)c2c(c1F)B(O)OC2` [I-33], the “herbicidal activity against Setaria viridis” value with Setaria viridis came out at 98%. In addition, the “herbicidal activity against Amaranthus retroflexus” value in the experiment with Amaranthus retroflexus turned out to be 100%. Also, the “herbicidal activity against Abutilon theophrasti” value in the experiment on Abutilon theophrasti was 98%.
On to `O=C(O)COc1c(F)cc2c(c1F)B(O)OC2` [I-24], for which the “herbicidal activity against Setaria viridis” value in the experiment on Setaria viridis turned out to be 95%. Also, in the experiment on Amaranthus retroflexus, the “herbicidal activity against Amaranthus retroflexus” value amounted to 100%. Besides, in the experiment with Abutilon theophrasti, the “herbicidal activity against Abutilon theophrasti” value came out at 100%.
On to `O=C(O)CCCOc1cc2c(cc1F)COB2O` [I-25], for which the “herbicidal activity against Setaria viridis” value with Setaria viridis turned out to be 95%. Further, the “herbicidal activity against Amaranthus retroflexus” value in the experiment on Amaranthus retroflexus is 95%.
`O=C(O)COc1ccc2c(c1)B(O)OC2` [I-1]: the “herbicidal activity against Setaria viridis” value in the experiment with Setaria viridis stood at 100%. The “herbicidal activity against Echinocloa crus-galli” value in the experiment with Echinocloa crus-galli is reported as 100%. Further, in the experiment with Amaranthus retroflexus, the “herbicidal activity against Amaranthus retroflexus” value came out at 100%. Moreover, the “herbicidal activity against Abutilon theophrasti” value in the experiment with Abutilon theophrasti is recorded as 90%. Besides, in the experiment with Avena fatua, the “herbicidal activity against Avena fatua” value was 90%.
On to `O=C(O)COc1cc2c(cc1F)COB2O` [I-6], for which the “herbicidal activity against Setaria viridis” value in the experiment on Setaria viridis turned out to be 100%. For the same compound, the “herbicidal activity against Alopecurus myosuroides” value in the experiment on Alopecurus myosuroides was found to be 90%. Moreover, the “herbicidal activity against Echinocloa crus-galli” value with Echinocloa crus-galli was found to be 98%. Moreover, in the experiment on Amaranthus retroflexus, the “herbicidal activity against Amaranthus retroflexus” value amounted to 100%. Also, in the experiment on Abutilon theophrasti, the “herbicidal activity against Abutilon theophrasti” value amounted to 100%. Also, the “herbicidal activity against Avena fatua” value in the experiment with Avena fatua is listed as 98%.
On to `CC(Oc1c(F)cc2c(c1F)B(O)OC2)C(=O)O` (stereo not shown) [I-30], for which the “herbicidal activity against Alopecurus myosuroides” value in the experiment on Alopecurus myosuroides came out at 85%. The “herbicidal activity against Amaranthus retroflexus” value in the experiment with Amaranthus retroflexus was 100%. Further, in the experiment on Abutilon theophrasti, the “herbicidal activity against Abutilon theophrasti” value stood at 95%.
For `COC(=O)COc1c(F)cc2c(c1F)B(O)OC2` [I-29], the “herbicidal activity against Setaria viridis” value in the experiment with Setaria viridis was 100%. Besides, in the experiment on Echinocloa crus-galli, the “herbicidal activity against Echinocloa crus-galli” value was found to be 95%. Further, the “herbicidal activity against Amaranthus retroflexus” value in the experiment on Amaranthus retroflexus is on record as 100%.
With `COC(=O)COc1cc2c(cc1F)COB2O` [I-5], in the experiment on Setaria viridis, the “herbicidal activity against Setaria viridis” value stood at 98%. For the same compound, the “herbicidal activity against Alopecurus myosuroides” value with Alopecurus myosuroides turned out to be 98%. Also, the “herbicidal activity against Echinocloa crus-galli” value with Echinocloa crus-galli is given as 98%. The “herbicidal activity against Amaranthus retroflexus” value with Amaranthus retroflexus amounted to 100%. Moreover, the “herbicidal activity against Abutilon theophrasti” value in the experiment with Abutilon theophrasti is listed as 100%. The “herbicidal activity against Avena fatua” value in the experiment with Avena fatua turned out to be 98%.
Consider `COC(=O)C(Oc1cc2c(cc1F)COB2O)C(=O)OC` [I-10], for which the “herbicidal activity against Setaria viridis” value in the experiment with Setaria viridis worked out at 95%. Moreover, the “herbicidal activity against Amaranthus retroflexus” value in the experiment on Amaranthus retroflexus is given as 90%.
Regarding `O=C(O)COc1c(Cl)cc2c(c1Cl)B(O)OC2` [I-15], the “herbicidal activity against Setaria viridis” value in the experiment with Setaria viridis amounted to 90%. In addition, the “herbicidal activity against Echinocloa crus-galli” value in the experiment on Echinocloa crus-galli stood at 85%. Besides, the “herbicidal activity against Amaranthus retroflexus” value in the experiment on Amaranthus retroflexus is recorded as 100%.
As to `CCOC(=O)C(F)Oc1ccc2c(c1)B(O)OC2` (stereo not shown) [I-26], the “herbicidal activity against Setaria viridis” value with Setaria viridis is reported as 85%. The “herbicidal activity against Amaranthus retroflexus” value in the experiment on Amaranthus retroflexus is 100%. For the same compound, the “herbicidal activity against Abutilon theophrasti” value in the experiment on Abutilon theophrasti was 90%.
